Read-outs that look alike come from different tables or passages of the source.
Assays:
SNB-19 (glioblastoma) = assay: In vitro cell proliferation assay (SRB), SNB19; assay type: cell-based; conditions: Homo sapiens, SRB method, 96 hours, read-out: Inhibition of cell growth (IC50, μM) SNB19
Description: (§1) Cancer cell lines to determine the effect of 5, 6, or 7-substituted-3-(hetero)arylisoquinolinamine compounds were obtained from the following sources: Human MDA-MB-231 (breast), PC3 (prostate), HCT-15 (colon), HCT116 (colon), OVCAR-3 (ovary), Caki-1 (kidney), PANC-1 (pancreas), SNB-19 (glioblastoma) and SK-MEL-28 (melanoma) from the American Type Culture Collection (ATCC) (Manassas, Va.). PC3, OVCAR-3, SK-MEL-28 and SNB-19 were grown in RPMI1640 medium (Invitrogen, Carlsbad, Calif.) supplemented with 10% fetal bovine serum (“FBS”), 1 mM sodium pyruvate, 10 mM HEPES and 100 U/ml penicillin and 100 μg/ml streptomycin (“P/S”). MDA-MB-231, Caki-1, HCT-15 (colon) and PANC-1 cells were maintained in Dulbecco's modified Eagle's medium (“DMEM”, Invitrogen) supplemented with 10% FBS, P/S and 10 mM HEPES. HCT116 cells were maintained in DMEM supplemented with 10% FBS, P/S and 10 mM HEPES for in vitro cell proliferation assay and in RPMI1640 medium supplemented with 10% FBS, 1 mM sodium pyruvate, 10 mM HEPES and P/S for in vitro cell cycle analysis. All cells were incubated at 37° C. under humidified 5% CO2.
(§2) The growth inhibition of the 5, 6, or 7-substituted-3-(hetero)arylisoquinolinamine derivatives against a variety of human tumor cells was evaluated to study the relative importance of particular substituent groups on the compounds. The 5, 6, or 7-substituted-3-(hetero)arylisoquinolinamine derivatives, prepared as described above, were tested with DMSO as a control.
(§3) The growth inhibition assay of representative 5, 6, or 7-substituted-3-(hetero)arylisoquinolinamine derivatives against human tumor cell lines was performed using the Sulforhodamine B (“SRB”) method (Skehan et al., J. National Cancer Institute, 82: 1107-1112 (1990)). Briefly, exponentially growing tumor cells were seeded into a 96-well plate at a density of 2-3×10^3 cells/well and treated with 5, 6, or 7-substituted-3-(hetero)arylisoquinolinamine compounds the next day. Triplicate wells were used for each treatment. The cells were incubated with the various compounds for 96 hours at 37° C. in a humidified 5% CO2 atmosphere. After 96-hour incubation, cells were fixed with 10% trichloroacetic acid (“TCA”), incubated for 1 hour at 4° C., and washed 3 times with tap water. Subsequently, cells were stained with 0.4% sulforhodamine B in 1% acetic acid for 30 minutes, washed 4 times with 1% acetic acid, and air-dried again. After 5 minutes agitation in 10 mM Tris solution, the absorbance of each well was measured at 530 nm using Benchmark Plus Microplate reader (Bio-Rad Laboratories, Hercules, Calif.).
(§4) To translate the OD530 values into the number of live cells in each well, the OD530 values were compared to those on standard OD530-versus-cell number curves generated for each cell line. The percent survival was calculated using the formula: % Survival=live cell number [test]/live cell number [control]×100
(§5) The IC50 values were calculated by non-linear regression analysis.

HCT116 (colon) = assay: In vitro cell proliferation assay (SRB), HCT116; assay type: cell-based; conditions: Homo sapiens, HCT-116
Description: as §1, §2, §3, §4, §5

OVCAR-3 (ovary) = assay: In vitro cell proliferation assay (SRB), OVCAR3; assay type: cell-based; conditions: Homo sapiens, SRB method, 96 hours, read-out: Inhibition of cell growth (IC50, μM) OVCAR3
Description: as §1, §2, §3, §4, §5

human cancer cell lines = assay: Growth inhibition against the panel of human tumor cell lines (SRB), overall statements; assay type: cell-based; conditions: Table 3 cell lines
Description: as §1, §2, §3, §4, §5
Using QSAR and medicinal chemistry techniques, a large number of compounds, including the compounds shown in Table 1-2 above, were synthesized. The synthesized compounds were screened against at least four cancer cell lines, PANC-1, MDA-MB-231, HCT116 and Caki-1, at approximately 1 μM concentration. Compounds showing activity in at least one of these cell lines were selected for further screening. From these compounds, thirty compounds were selected for further evaluation as broad-spectrum anti-proliferative agents as shown in the following Table 3.

MDA-MB-231 (breast) = assay: In vitro cell proliferation assay (SRB), MDA-MB-231; assay type: cell-based; conditions: Homo sapiens, SRB method, 96 hours, read-out: Inhibition of cell growth (IC50, μM) MDA-MB-231
Description: as §1, §2, §3, §4, §5

Caki-1 (kidney) = assay: In vitro cell proliferation assay (SRB), Caki-1; assay type: cell-based; conditions: Homo sapiens, SRB method, 96 hours, read-out: Inhibition of cell growth (IC50, μM) Caki-1
Description: as §1, §2, §3, §4, §5

HCT116 cells = assay: In vitro cell cycle analysis (PI staining); assay type: cell-based, Human; conditions: HCT116, 0.3 uM, 12 hours; for % Cells in S: DMSO control 20.5; for % Cells in G1: DMSO control 39.4; for % Cells in G2/M: DMSO control 40.1
Description: as §1
This assay was used to determine the ability of 5, 6, or 7-substituted-3-(hetero)arylisoquinolinamine compounds to arrest cells at a specific phase during cell cycle. The day before drug treatment, HCT116 cells were plated at 50-70% saturation in a 10 cm dish in RPMI1640 medium with 10% FBS and then incubated overnight in a humidified 37° C. incubator with 5% CO2. The following day RPMI1640 medium (with 10% FBS) carrying the appropriate concentration of test compound solubilized in DMSO was added to the dishes. No compound control treatment was also included (0.25% DMSO). The cells were then incubated for 12 hours and were harvested by centrifugation at 7,000 rpm for 5 minutes. Cell pellets were resuspended in 0.2 ml of PBS containing 0.1% glucose and 2% FBS. Subsequently, 5 ml ice-cold 70% ethanol was added dropwise with shaking and the treated cells were stored at −20° C. at least 30 minutes. Cells were centrifuged at 2,000 rpm for 5 minutes and washed once with 1 ml PBS with 0.1% glucose and 2% FBS. After removal of the supernatant, cells were resuspended in 0.5 ml of 70 μM propium iodide (PI) solution containing 0.1% Triton X-100, 40 mM sodium citrate, pH 7.4. RNase was added at 50 μg/ml final concentration and cells were incubated at 37° C. for 30 minutes. PI stained cells were analyzed by Guava PCA-AFP instrument using its cell cycle software program (Guava Technologies, Hayward, Calif.) and expressed as percentage of cells in G1, S and G2/M phases of the cell cycle.

SK-MEL-28 (melanoma) = assay: In vitro cell proliferation assay (SRB), SK-MEL-28; assay type: cell-based; conditions: Homo sapiens, SRB method, 96 hours, read-out: Inhibition of cell growth (IC50, μM) SK-MEL-28
Description: as §1, §2, §3, §4, §5

PANC-1 (pancreas) = assay: In vitro cell proliferation assay (SRB), PANC-1; assay type: cell-based; conditions: Homo sapiens, SRB method, 96 hours, read-out: Inhibition of cell growth (IC50, μM) PANC-1
Description: as §1, §2, §3, §4, §5

[1] = test system: paclitaxel-resistant HCT-15 colorectal cancer cells; assay: In vitro antitumor effects against paclitaxel-resistant HCT-15 cells; assay type: cell-based, Human; conditions: for IC50: Homo sapiens, paclitaxel-resistant HCT-15, Table 5, read-out: Inhibition of cell growth, IC50 (μM) HCT-15
Description: as §1, §3, §4, §5
Compound 13 and 14 were tested in colon cancer cells and their antitumor activities were compared with paclitaxel (Taxol®).

PC3 (prostate) = assay: In vitro cell proliferation assay (SRB), PC3; assay type: cell-based; conditions: Homo sapiens; SRB method, 96 hours; read-out: Inhibition of cell growth (IC50, μM) PC3
Description: as §1, §2, §3, §4, §5

[2] = test system: HCT15 human colon carcinoma xenografts; assay: Ex vivo xenograft study of nude mice; assay type: in vivo; conditions: 10 mg/kg/day intraperitoneal, three times per week, day 10 to day 29, nude mice
Description: In order to observe the inhibition of growth of tumor in an animal model, an ex vivo xenograft study of nude mice was conducted utilizing Compound 13. Paclitaxel-resistant HCT15 cell suspension (1×10^6 cells in 0.2 ml of RPMI) was injected subcutaneously into the right flank of six-week-old female athymic mice (BALB/c nu/nu) on day 0. A sufficient number of mice were injected with HCT15 cell suspension so that tumors in a volume range as narrow as possible were selected for the trial on the day of treatment initiation. Animals with tumors in the proper size range were assigned to various treatment groups. Palcitaxel was used as a positive control. Compound 13 and paclitaxel were dissolved in 5 Cremophor and 5% ethanol in PBS and solvent alone served as vehicle control. All study medications (vehicle control, paclitaxel: 10 mg/kg/day, Compound 13: 10 mg/kg/day) were given by intraperitoneal injections three times per week starting from day 10 and ending on day 29 after inoculation of HCT15 cells. To quantify tumor growth, three perpendicular diameters of the tumors were measured with calipers every 3-5 days, and the body weight of the mice was monitored for toxicity. The tumor volume was calculated using the formula: tumor volume (mm^3)=(width)×(length)×(height)×π/6.

[3] = SRB method, 96 hours, Table 3, read-out: Inhibition of cell growth (IC50, μM) HCT116
[4] = Table 5, read-out: Inhibition of cell growth, IC50 (μM) HCT116

Structure (SMILES)	IC50 (SNB-19 (glioblastoma)) [µM]	IC50 (HCT116 (colon); [3]) [µM]	IC50 (HCT116 (colon); [4]) [µM]	IC50 (OVCAR-3 (ovary)) [µM]	activity in growth inhibition of human cancer cell compared to Compound 23 (human cancer cell lines)	times more active than compound 23 in tested cell lines (human cancer cell lines)	IC50 (MDA-MB-231 (breast)) [µM]	IC50 (Caki-1 (kidney)) [µM]	% Cells in S (HCT116 cells) [%]	% Cells in G1 (HCT116 cells) [%]	% Cells in G2/M (HCT116 cells) [%]	IC50 (SK-MEL-28 (melanoma)) [µM]	IC50 (PANC-1 (pancreas)) [µM]	IC50 [1] [µM]	antitumor activity compared with paclitaxel ([1]; paclitaxel-resistant HCT-15 colorectal cancer cells)	IC50 (PC3 (prostate)) [µM]	% Inhibition of HCT-15 human colorectal cancer in mice at 29 days [2] [%]	loss of activity in HCT-15 cells when IC50 values compared in both colon cancer cells ([1]; HCT-15 versus HCT116) [fold]
Cc1cccc(-c2cc3ccc(N(C)C)cc3c(N)n2)c1.Cl [Compound 14, N^7,N^7-Dimethyl-3-m-tolylisoquinoline-1,7-diamine hydrochloride]	0.028	0.023	0.023	0.016	equal or better activity	five to thirteen times more active	0.021	0.023	7.6	10.3	82.1	0.032	0.018	0.021	higher antitumor activities than that of paclitaxel	0.024	–	–
Cc1ccc2cc(-c3c(C)cccc3C)nc(N)c2c1 [Compound 43, 7-Methyl-3-(2,6-dimethylphenyl)isoquinolin-1-amine]	0.12	0.074	–	0.075	equal or better activity	–	0.051	0.048	10.8	15.3	73.9	0.12	0.079	–	–	0.12	–	–
COc1ccc(C)c(-c2cc3ccc(C)cc3c(N)n2)c1 [Compound 50, 3-(5-Methoxy-2-methylphenyl)-7-methyl-isoquinolin-1-amine]	0.052	0.042	–	0.042	equal or better activity	–	0.03	0.047	–	–	–	0.051	0.058	–	–	0.07	–	–
COc1cccc(-c2cc3cc(OC)c(OC)cc3c(N)n2)c1 [Compound 52, 6,7-Dimethoxy-3-(3-methoxyphenyl)isoquinolin-1-amine]	0.22	0.16	–	0.074	equal or better activity	–	0.14	0.17	–	–	–	0.23	0.19	–	–	0.18	–	–
CC(=O)O[C@H]1C(=O)[C@@]2(C)[C@H]([C@H](OC(=O)c3ccccc3)[C@]3(O)C[C@H](OC(=O)[C@H](O)[C@@H](NC(=O)c4ccccc4)c4ccccc4)C(C)=C1C3(C)C)[C@]1(OC(C)=O)CO[C@@H]1C[C@@H]2O [Paclitaxel, paclitaxel, reference compound]	–	–	0.002	–	–	–	–	–	–	–	–	–	–	0.14	–	–	48.8	70
